We go through 58 compounds from BindingDB's records for doi:10.7270/Q24T6GSH (The Scripps Research Institute Molecular Screening Center, 2007).

Where a name gives a salt, the structure may show the parent alone. A value given as a limit tells only on which side of the number the result lay.

The first assay concerns the target T1, Isoform 2 of Nuclear receptor ROR-alpha (Alpha-2) (Homo sapiens, UniProt P35398).
T1 sequence (P35398 whole entry): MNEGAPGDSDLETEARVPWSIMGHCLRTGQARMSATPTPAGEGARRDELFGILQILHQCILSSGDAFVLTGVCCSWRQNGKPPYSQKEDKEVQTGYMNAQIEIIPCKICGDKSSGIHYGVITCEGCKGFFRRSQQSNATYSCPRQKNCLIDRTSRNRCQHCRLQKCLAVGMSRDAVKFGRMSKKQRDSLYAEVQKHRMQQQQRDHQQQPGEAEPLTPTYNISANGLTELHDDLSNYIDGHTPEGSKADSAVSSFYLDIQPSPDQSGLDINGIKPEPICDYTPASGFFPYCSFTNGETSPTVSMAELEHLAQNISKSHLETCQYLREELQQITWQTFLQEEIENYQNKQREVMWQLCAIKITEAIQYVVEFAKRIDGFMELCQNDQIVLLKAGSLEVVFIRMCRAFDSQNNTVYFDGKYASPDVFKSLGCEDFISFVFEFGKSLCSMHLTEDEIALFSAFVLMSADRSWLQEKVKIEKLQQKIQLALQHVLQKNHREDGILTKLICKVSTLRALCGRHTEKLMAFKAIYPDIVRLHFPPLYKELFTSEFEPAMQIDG
The experiment in a line: activators of RORA ligand-binding domain fusion – cell-based, CHO-K1, Gal4-RORA LBD, luciferase luminescence, counter-screen for SF-1 activator project, dose response (AID 675).
Conditions: not given
In general terms: The purpose of a counterscreen is to sort out artefacts and off-target activity.
The term EC50 denotes the concentration that produces a half-maximal response. The low end stands for an effect from little substance, the high end for a need for much substance. The compound `Cc1cccnc1Nc1nc(-c2ccc(O)cc2O)cs1` [4-[2-(3-Methyl-pyridin-2-ylamino)-thiazol-4-yl]-benzene-1,3-diol] returned an EC50 of 1890 nM. This lies in the single-digit micromolar range.
For the compound `CC(C)(CC(=O)O)Cc1nc(-c2ccc(Cl)cc2)no1` [4-[3-(4-chlorophenyl)-1,2,4-oxadiazol-5-yl]-3,3-dimethyl-butanoic acid], the EC50 was above 11000 nM.
On to `CCOC(=O)N1CCN(S(=O)(=O)c2ccc(C(=O)Nc3sc4c(c3C#N)CCC4)cc2)CC1` [4-[4-[(3-cyano-5,6-dihydro-4H-cyclopenta[b]thiophen-2-yl)carbamoyl]phenyl]sulfonylpiperazine-1-carboxylic acid ethyl ester], for which the midpoint of the response, the EC50, lay at 636 nM.
For `COC(=O)c1ccc(C(=O)C(C#N)c2nc3ccccc3s2)cc1` (stereo not drawn) [4-[(2Z)-2-(3H-1,3-benzothiazol-2-ylidene)-2-cyano-1-oxoethyl]benzoic acid methyl ester], the response was half-maximal at 1610 nM (EC50).
On the same count and under the same terms, for `Cc1ccc(C(=O)Nc2ncc(Cc3ccccc3)s2)o1` [5-Methyl-furan-2-carboxylic acid (5-benzyl-thiazol-2-yl)-amide] the value was above 407 nM.
On the same count and under the same terms, for `Cc1ccc(C(=O)Nc2ncc(Cc3ccc(F)cc3)s2)o1` [5-Methyl-furan-2-carboxylic acid [5-(4-fluoro-benzyl)-thiazol-2-yl]-amide] the value was above 407 nM.
As for `O=C(Nc1nccs1)c1ccc(COc2ccc(F)cc2)o1` [5-[(4-fluoranylphenoxy)methyl]-N-(1,3-thiazol-2-yl)furan-2-carboxamide], the EC50 turned out to be 4710 nM.
Turning to `Nc1c(C(=O)NCc2ccco2)nnn1-c1ccccc1` [5-amino-N-(2-furanylmethyl)-1-phenyl-4-triazolecarboxamide], the EC50 was above 3670 nM.
Take `CC1(C)Cc2c(sc(NC(=O)c3ccc(Br)o3)c2C#N)CO1` [5-bromanyl-N-(3-cyano-5,5-dimethyl-4,7-dihydrothieno[2,3-c]pyran-2-yl)furan-2-carboxamide]: the EC50 was 752 nM.
`COc1ccc(OC)c2sc(NC(=O)c3ccc(Br)s3)nc12` [5-bromanyl-N-(4,7-dimethoxy-1,3-benzothiazol-2-yl)thiophene-2-carboxamide] had an EC50 above 99000 nM.
As for `O=C(Nc1cccc(-c2nnc(-c3ccccc3)o2)c1)c1ccc(Br)o1` [5-bromanyl-N-[3-(5-phenyl-1,3,4-oxadiazol-2-yl)phenyl]furan-2-carboxamide], the EC50 was determined as 8560 nM.
With `CCc1ccc(C(=O)NCc2cccs2)s1` [5-ethyl-N-(2-thenyl)thiophene-2-carboxamide], the concentration for a half-maximal effect (EC50) was above 3670 nM.
With `c1ccc(-c2cnc(CSc3nnc4ccccn34)o2)cc1` [5-phenyl-2-([1,2,4]triazolo[4,3-a]pyridin-3-ylsulfanylmethyl)-1,3-oxazole], the EC50 is above 1220 nM.
On the same count and under the same terms, then `COc1ccc(-c2cn3ccsc3n2)cc1` [6-(4-methoxyphenyl)imidazo[2,1-b][1,3]thiazole], with 283 nM.
For `CCOC(=O)c1cnc2c(-c3ccccc3)cnn2c1N` [7-amino-3-phenyl-6-pyrazolo[1,5-a]pyrimidinecarboxylic acid ethyl ester], the EC50 stood at 356 nM. The EC50 values of the last two compounds are within 1.5-fold of each other.
The compound `COCC(C)NC(=O)c1noc2c1CCc1cc(OC)ccc1-2` (stereo not drawn) [7-methoxy-N-(1-methoxypropan-2-yl)-4,5-dihydrobenzo[g][1,2]benzoxazole-3-carboxamide] returned an EC50 of 1270 nM. This EC50 lies about 3.6-fold higher than the previous one.
Turning to `CCc1nc(Nc2ccc3nccnc3c2)c2oc3ccccc3c2n1` [(2-ethylbenzofuro[3,2-d]pyrimidin-4-yl)-quinoxalin-6-yl-amine;hydrochloride], the EC50 is above 99000 nM.
Regarding `CC(=Nc1cccc(O)c1)c1sc2ccccc2c1O` [(2Z)-2-[1-(3-hydroxyanilino)ethylidene]-1-benzothiophen-3-one], the EC50 is above 3670 nM.
On the same count and under the same terms, then `COC(=O)CSc1nc2cc(C)ccc2cc1C#N` [(3-Cyano-7-methyl-quinolin-2-ylsulfanyl)-acetic acid methyl ester], with above 1220 nM; and `Cc1ccc(C2C(C(=O)c3cnn(-c4ccccc4)c3C)C(=O)C(=O)N2CCN(C)C)o1` (stereo not drawn) [(4E)-1-[2-(dimethylamino)ethyl]-4-[hydroxy-(5-methyl-1-phenyl-4-pyrazolyl)methylidene]-5-(5-methyl-2-furanyl)pyrrolidine-2,3-dione], with 4130 nM.
`CC(=NC1CCCC1)c1c(C)[nH]n(-c2nc3ccccc3s2)c1=O` [(4Z)-2-(1,3-benzothiazol-2-yl)-4-[1-(cyclopentylamino)ethylidene]-5-methylpyrazol-3-one]: the EC50 is above 1220 nM.
Turning to `Cn1c(-c2ccc3c(c2)OCO3)cnc1NCc1ccccc1` [(5-Benzo[1,3]dioxol-5-yl-1-methyl-1H-imidazol-2-yl)-benzyl-amine], the EC50 was 11200 nM.
For `Fc1ccc2nc(Nc3nc4c(s3)CCCC4)sc2c1` [(6-fluoro-1,3-benzothiazol-2-yl)-(4,5,6,7-tetrahydro-1,3-benzothiazol-2-yl)amine], the midpoint of the response, the EC50, lay at 639 nM. Against the preceding compound, the EC50 is about 18-fold lower.
For the compound `CC(=N)C(C#N)C(=O)CSc1ccc2c(c1)OCCO2` (stereo not drawn) [(E)-3-amino-2-[2-(2,3-dihydro-1,4-benzodioxin-6-ylsulfanyl)acetyl]but-2-enenitrile], the EC50 is 1160 nM.
The same measure, in the same setting: then `O=C(Nc1ccc(NC(=O)c2cccs2)cn1)c1ccco1` [Furan-2-carboxylic acid {5-[(thiophene-2-carbonyl)-amino]-pyridin-2-yl}-amide], with 2710 nM; and `CC(=O)Nc1ccc(-c2cc3ccccc3o2)cc1` [MLS000036584], with 556 nM.
As for `O=C(Nc1nnc(C2CCCCC2)s1)c1ccco1` [MLS000039439], the EC50 stood at 596 nM.
For the compound `CC(=O)c1c(C)[nH]c(C(=O)NCCc2cccc(C)c2)c1C` [MLS000045238], a half-maximal effect (EC50) was put at 2930 nM. Against the preceding compound, the EC50 is about 4.9-fold higher.
Same read-out and setting: then `O=C(NCC1CCCO1)c1coc2nc3ccccc3nc12` (stereo not drawn) [MLS000046703], with above 99000 nM; and `O=C(Nc1ccc2c(c1)OCO2)c1ccc(COc2ccc3c(c2)CCC3)o1` [MLS000048173], with 446 nM.
On the same count and under the same terms, then `COc1ccc(CCC(=O)Nc2ccc(-c3noc(-c4ccc(OC)c(OC)c4)n3)cc2)cc1` [MLS000049572], with 2460 nM.
In turn, `O=C(Nc1ccc(-c2cn3ccsc3n2)cc1)C1CC1` [MLS000053249] showed an EC50 of 653 nM.
On to `COc1ccc(NC(=O)c2ccc3c(c2)OCO3)cc1Cl` [MLS000053302], for which the EC50 is above 99000 nM.
The same measure, in the same setting: for `CS(=O)(=O)c1ccc2nc(NC(=O)C3COc4ccccc4O3)sc2c1` (stereo not drawn) [MLS000056123] the value was 7320 nM; for `O=C(Nc1ccc(CN2CCOCC2)cc1)c1cc2ccccc2o1` [MLS000062478], 480 nM; for `CC(C)(C)c1cc(NC(=O)C2CCCO2)no1` (stereo not drawn) [MLS000065845], 2530 nM.
Turning to `O=C(NCc1ccco1)c1cc2c(s1)CCCCC2` [MLS000065859], the EC50 was above 1220 nM.
`CCOC(=O)c1cc2cc(OC)ccc2[nH]1` [MLS000071430]: a half-maximal effect (EC50) was put at 1570 nM.
The compound `C=CCn1c(-c2ccccc2)c[nH]c1=S` [MLS000071728] gave an EC50 of 1470 nM.
Compound `CCOc1ccc(OCC)c(NC(=O)CSc2nc3c(c(=O)n(C)c(=O)n3C)n2C(C)C)c1` [MLS000072726] yielded an EC50 of 736 nM.
`Cc1cnc(NC(=O)CSc2nnc(-c3ccccc3)o2)s1` [MLS000077990] yielded an EC50 of 4140 nM.
The same measure, in the same setting: for `CCOC(=O)c1[nH]c2ccc(C)cc2c1N` [MLS000079379] the value was 731 nM; for `Nc1nc2c(s1)CCc1c-2cnn1-c1ccccc1` [MLS000085948], 551 nM.
The compound `Cc1cc(C(=O)Nc2sc3c(c2C#N)CCC(C(C)(C)C)C3)no1` (stereo not drawn) [MLS000087312] yielded an EC50 of 8140 nM.
Consider `CN(C)C=Nc1ncnc2c1cnn2-c1ccc(C(F)(F)F)cn1` [MLS000087855], for which the EC50 was above 99000 nM.
Still for that read-out and setting: then `CCCc1cc(C(=O)Nc2ccccc2SC)no1` [MLS000116378], with 9170 nM.
Compound `CC(=O)c1cccc(NC(=O)c2cnn3ccccc23)c1` [MLS000118777] yielded an EC50 of 1220 nM.
`CCOc1ccc(OCC)c(NC(=O)C2CCCN2S(=O)(=O)c2cccc3cccnc23)c1` (stereo not drawn) [MLS000119093] yielded an EC50 of 2160 nM. Against the preceding compound, the EC50 is about 1.8-fold higher.
`COc1ccccc1Nc1nc2ccccc2[nH]1` [N-(2-methoxyphenyl)-1H-benzimidazol-2-amine] had an EC50 of 1620 nM. This EC50 and that of the compound before are within 1.5-fold of each other.
Compound `CC(=O)Nc1ccc(-c2nc3c(C)cccc3[nH]2)cc1` [SMR000001134] registered a 50% effective concentration (EC50) of 747 nM.
`Cc1cc2n(n1)C(c1ccc(N(C)C)cc1)Nc1ccccc1-2` (stereo not drawn) [SMR000015202] registered an EC50 of 10800 nM.
As to `CC1(C)CC(=O)C(=CNc2ccccc2)C(=O)C1` [SMR000054233], the EC50 was above 99000 nM.
The same measure, in the same setting: for `O=c1[nH]c2ccccc2nc1-c1cccs1` [SMR000068248] the value was 3720 nM.
Regarding `CN(C)C(=O)CSc1nnc(C23CC4CC(CC(C4)C2)C3)o1` [SMR000077996], a half-maximal response (EC50) required 5360 nM.
On the same count and under the same terms, then `CCCCC1CCC(c2nc(-c3ccccn3)no2)CC1` (stereo not drawn) [SMR000105468], with 403 nM; and `CC1(C)CC(=O)C(=CNc2ccc3[nH]ncc3c2)C(=O)C1` [SMR000111453], with 9880 nM.
Compound `COCCn1c(C)cc(C(=O)COC(=O)C23CC4CC(CC(O)(C4)C2)C3)c1C` [[2-[1-(2-methoxyethyl)-2,5-dimethylpyrrol-3-yl]-2-oxoethyl] 3-hydroxyadamantane-1-carboxylate] showed a half-maximal effective concentration (EC50) of 741 nM.

Staying with this assay, now noted: inactive by the depositor's call.
`CCN(CC)c1ccc(-n2cc3c(=O)n(C)c(=O)n(C)c3c2)cc1` [6-(4-Diethylamino-phenyl)-1,3-dimethyl-1,6-dihydro-pyrrolo[3,4-d]pyrimidine-2,4-dione] displayed a concentration giving a half-maximal response (EC50) of 12500 nM. In other words, the double-digit micromolar range.
